Reference: patent publication US20040192554A1, “Technique for effectively treating an agricultural product with a 1-substituted-cyclopropene” (priority 2003, published 2004)

Assays:
Type in all cases: in vivo
[1] = system: peach (variety "Akatsuki") fruit; assay: Quality deterioration of peach (Akatsuki) fruit after storage, Example 9; conditions: 1 ppm, after storage 25 degrees C 5 days, treated day after harvest
Procedure: (§1) Using a peach (variety “Akatsuki”) fruit (6 fruits were used per group) as an agricultural product, the following experiment was performed.
(§2) 1) A fruit was placed into a sealed chamber, and a pressure in the chamber was reduced to 25.0 kPa. Subsequently, 1-methylcyclopropene was placed therein to the concentration in the chamber of 1 ppm, and contact-treated for 1 minute under the reduced pressure (25.0 kPa). Then, the pressure was returned to a normal pressure, and contact treatment was carried out for 12 hours while the concentration of 1-methylcyclopropene in the chamber was maintained at 1 ppm.
2) A fruit was placed into a sealed chamber, and a pressure in the chamber was reduced to 25.0 kPa. Subsequently, 1-methylcyclopropene was placed therein to the concentration in the chamber of 1 ppm, and contact-treated for 12 hours under the reduced pressure (25.0 kPa).
The fruit which had been subjected to treatment of the above-mentioned 1) or 2) was stored at 25 degrees C for 5 days, and hardness of flesh was measured. […] In addition, also regarding a fruit undergoing no treatment of 1) or 2) (non-treatment), similar storage was performed, and the above-mentioned index was measured. Further, regarding a non-treated fruit, the above-mentioned index before storage was also measured. […]

[2] = system: Japanese pear (variety "Shinsei") fruit; assay: Quality deterioration of Japanese pear (Shinsei) fruit after storage, Example 1; conditions: 1 ppm, after storage 25 degrees C 2 weeks
Procedure: Using a Japanese pear (variety “Shinsei”) fruit (6 fruits were used per group) as an agricultural product, the following experiment was preformed.
1) A fruit and 1-methylcyclopropene (concentration 1 ppm (parts per million) in a chamber) were placed into a sealed chamber (volume 30L, same in the following Examples), and contact-treated for 1 hour or 16 hours under a normal pressure.
2) A fruit was placed into a sealed chamber, and a pressure in the chamber was reduced to 12.5 kPa. Subsequently, 1-methylcyclopropene was placed therein to the concentration in the chamber of 1 ppm, and contact-treated for 30 minutes or 1 hour under the reduced pressure (12.5 kPa).
The fruit which had been subjected to treatment of above-mentioned 1) or 2) was stored at 25 degrees C for 2 weeks, and hardness of flesh and pH of a fruit juice which is an index for the content of an acid were measured. In addition, browning of flesh and fruit core, which is an index for an extent of storage disorder was assessed by naked eyes. Contact treatment of the above-mentioned 1) or 2) was performed on a day of harvesting a fruit. In addition, also regarding a fruit undergoing no treatment of 1) or 2) (non-treatment), similar storage was performed, and the above-mentioned index was measured and assessed. Further, regarding non-treated fruit, the above-mentioned index before storage was also measured and assessed. Different alpha characters in Table indicate that a significant difference was recognized at a risk rate of 5% (multiple range test of Newman-Keuls). In Tables showing the results of the following Examples 1 to 10, “1-MCP” denotes 1-methylcyclopropene.

[3] = system: peach (variety "Yuzora") fruit; assay: Quality deterioration of peach (Yuzora) fruit after storage, Example 7; conditions: 1 ppm, after storage 25 degrees C 9 days
Procedure: Using a peach (variety “Yuzora”) fruit (6 fruits were used per group) as an agricultural product, the following experiment was performed.
1) A fruit and 1-methylcyclopropene (concentration 1 ppm in a chamber) were placed into a sealed chamber, and contact-treated for 24 hours under a normal pressure.
2) A fruit was placed into a sealed chamber, and a pressure in the chamber was reduced to 25.0 kPa. Subsequently, 1-methylcyclopropene was placed therein to the concentration in the chamber of 1 ppm, and contact-treated for 1 minute under the reduced pressure (25.0 kPa).
The fruit which had been subjected to treatment of the above-mentioned 1) or 2) was stored at 25 degrees C for 9 days, and hardness of flesh and was measured. In addition, contact treatment of the above-mentioned 1) or 2) was performed on the next day from harvesting of fruit. In addition, also regarding a fruit undergoing no treatment of 1) or 2) (non-treatment), similar storage was performed, and the above-mentioned index was measured. Further, regarding non-treated fruit, the above-mentioned index before storage was also measured.

[4] = system: peach (variety "Akatsuki") fruit; assay: Quality deterioration of peach (Akatsuki) fruit after storage, Example 8; conditions: 1 ppm, after storage 25 degrees C 5 days, treated on day of harvest
Procedure: as §1
1) A fruit and 1-methylcyclopropene (concentration in a chamber 1 ppm) were placed into a sealed chamber, and contact-treated for 12 hours under a normal pressure.
as §2, with “2)” for “1)”
The fruit which had been subjected to treatment of the above-mentioned 1) or 2) was stored at 25 degrees C for 5 days, and hardness of flesh was measured. In addition, contact treatment of the above-mentioned 1) or 2) was performed on a day for harvesting of a fruit. In addition, also regarding a fruit undergoing no treatment of 1) or 2) (non-treatment), similar storage was performed, and the above-mentioned index was measured. Further, regarding a non-treated fruit, the above-mentioned index before storage was also measured. […]

[5] = Normal pressure 12 hours after reduced pressure (25.0 kPa) 1 minute
[6] = Reduced pressure (12.5 kPa) 30 minutes
[7] = Reduced pressure (12.5 kPa) 1 hour

In the case of CC1=CC1 [1-MCP, 1-methylcyclopropene], the Hardness of flesh [1, 5] is reported as 4.39a N, the Hardness of flesh ([1]; Reduced pressure (25.0 kPa) 12 hours) is reported as 7.11b N and the Hardness of flesh ([2]; Normal pressure 1 hour) is reported as 16.46a N. The “Presence or absence of browning” value ([2]; Normal pressure 1 hour) was “Presence”, the “pH of fruit juice” value ([2]; Normal pressure 1 hour) was 5.07 and the Hardness of flesh ([2]; Normal pressure 16 hours) was 21.17b N. The “Presence or absence of browning” value ([2]; Normal pressure 16 hours) was “Absence”, the “pH of fruit juice” value ([2]; Normal pressure 16 hours) was 5.07 and the Hardness of flesh [2, 6] was 20.58b N. The “Presence or absence of browning” value [2, 6] was “Slight”, the “pH of fruit juice” value [2, 6] was 5.10 and the Hardness of flesh [2, 7] was 20.97b N. The “Presence or absence of browning” value [2, 7] was “Absence”, the “pH of fruit juice” value [2, 7] was 4.97 and the Hardness of flesh ([3]; Normal pressure 24 hours) was 4.38 N. The Hardness of flesh ([3]; Reduced pressure (25.0 kPa) 1 minute) was 4.24 N, the Hardness of flesh [4, 5] was 6.18b N and the Hardness of flesh ([4]; Normal pressure 12 hours) was 2.84a N.
